# Laboratory results taken from publication PMC8413292, “Small-molecule polymerase inhibitor protects non-human primates from measles and reduces shedding” (Nature Communications, 2021).
# Several values for one entry are separate records, joined by “and”; a condition that tells them apart may be missing. Identical values can stand only once.
# System: MeV N gene RNA
# Experiment: Quantitative RT-PCR of MeV N RNA in PBMCs
# Assay type: in vivo
# Description: Organs (21 days post-infection) and PBMCs (twice a week) were frozen in RNAlater (Qiagen) at −80 °C until further processing. For the deceased animal, organs were frozen in RNAlater at the day of death. Lymph nodes were thawed on ice, transferred to TRIzol (ambion life technologies) and homogenized using a tissue homogenizer. Total RNA of lymph nodes and PBMCs was extracted following the TRIzol manufacturer’s protocol. RNA (1000 ng for lymph nodes; 110 ng for PBMCs) was then subjected to reverse transcription using random hexamer primers and Superscript III reverse transcriptase in accordance with the manufacturer’s protocols. Subsequent quantitative PCR (qPCR) was carried out using primer pairs specific for a fragment in the MeV N gene[23] or GAPDH gene(Supplementary Table 2) and the PowerUp SYBR Green Master Mix (Thermo Fisher Scientific) in an Applied Biosystems 7500 Real-Time PCR system. Samples were normalized for GAPDH. The comparative (ΔΔCt) Ct method was applied to determine relative amounts of N-encoding RNA present in samples from treated animals compared to those obtained from untreated control animals (lymph nodes) or compared to those obtained from untreated control animals on day 7 post-infection (peak PBMC virus titer).
smiles,measurement,setting,value
Cn1nc(C(F)(F)F)cc1C(=O)Nc1ccc(S(=O)(=O)N2CCCC[C@H]2CCN2CCOCC2)cc1 [ERDRP-0519],"Supp. Figure 3a, relative MeV N RNA in PBMCs, group mean (Mean 2)","prophylactic, Day 0",-12.26
same,"Supp. Figure 3a, relative MeV N RNA in PBMCs, group mean (Mean 2)","prophylactic, Day 3",-12.06
same,"Supp. Figure 3a, relative MeV N RNA in PBMCs, group mean (Mean 2)","prophylactic, Day 7",-11.48
same,"Supp. Figure 3a, relative MeV N RNA in PBMCs, group mean (Mean 2)","prophylactic, Day 10",-12.34
same,"Supp. Figure 3a, relative MeV N RNA in PBMCs, group mean (Mean 2)","prophylactic, Day 14",-13.16
same,"Supp. Figure 3a, relative MeV N RNA in PBMCs, group mean (Mean 2)","prophylactic, Day 17",-11.47
same,"Supp. Figure 3a, relative MeV N RNA in PBMCs, group mean (Mean 2)","prophylactic, Day 21",-10.12
same,"Supplemental Figure 3a source data, relative MeV N RNA in PBMCs, individual animals","prophylactic, time (d) 0",-12.3202 and -6.433 and -10.4614 and -17.6101 and -12.9356 and -13.7878
same,"Supplemental Figure 3a source data, relative MeV N RNA in PBMCs, individual animals","prophylactic, time (d) 3",-12.847 and -12.9062 and -10.7172 and -12.2727 and -12.1274 and -11.494
same,"Supplemental Figure 3a source data, relative MeV N RNA in PBMCs, individual animals","prophylactic, time (d) 7",-12.6218 and -9.583 and -12.0312 and -12.5732 and -12.8193 and -9.245
same,"Supplemental Figure 3a source data, relative MeV N RNA in PBMCs, individual animals","prophylactic, time (d) 10",-9.991 and -12.9071 and -11.8528 and -13.7115 and -14.2547 and -11.2939
same,"Supplemental Figure 3a source data, relative MeV N RNA in PBMCs, individual animals","prophylactic, time (d) 14",-12.3346 and -10.7326 and -10.4158 and -12.9517 and -16.1088 and -16.4382
same,"Supplemental Figure 3a source data, relative MeV N RNA in PBMCs, individual animals","prophylactic, time (d) 17",-14.0262 and -7.645 and -8.833 and -10.0876 and -14.1769 and -14.0235
same,"Supplemental Figure 3a source data, relative MeV N RNA in PBMCs, individual animals","prophylactic, time (d) 21",-13.9134 and -10.311 and -12.0659 and -11.4656 and -0.8977 and -12.0848
same,"Supp. Figure 3a, relative MeV N RNA in PBMCs, group mean (Mean 2)","therapeutic (d3), Day 0",-13.2
same,"Supp. Figure 3a, relative MeV N RNA in PBMCs, group mean (Mean 2)","therapeutic (d3), Day 3",-12.07
same,"Supp. Figure 3a, relative MeV N RNA in PBMCs, group mean (Mean 2)","therapeutic (d3), Day 7",-9.205
same,"Supp. Figure 3a, relative MeV N RNA in PBMCs, group mean (Mean 2)","therapeutic (d3), Day 10",-9.289
same,"Supp. Figure 3a, relative MeV N RNA in PBMCs, group mean (Mean 2)","therapeutic (d3), Day 14",-11.53
same,"Supp. Figure 3a, relative MeV N RNA in PBMCs, group mean (Mean 2)","therapeutic (d3), Day 17",-11.67
same,"Supp. Figure 3a, relative MeV N RNA in PBMCs, group mean (Mean 2)","therapeutic (d3), Day 21",-13.06
same,"Supplemental Figure 3a source data, relative MeV N RNA in PBMCs, individual animals","therapeutic (d3), time (d) 0",-12.185 and -15.2199 and -11.755 and -14.0483 and -12.7958
same,"Supplemental Figure 3a source data, relative MeV N RNA in PBMCs, individual animals","therapeutic (d3), time (d) 3",-13.2368 and -9.809 and -12.089 and -11.8661 and -12.6935 and -12.7459
same,"Supplemental Figure 3a source data, relative MeV N RNA in PBMCs, individual animals","therapeutic (d3), time (d) 7",-6.7874 and -7.787 and -8.103 and -8.648 and -13.5153 and -10.39
same,"Supplemental Figure 3a source data, relative MeV N RNA in PBMCs, individual animals","therapeutic (d3), time (d) 10",-4.115 and -10.1748 and -9.33 and -8.711 and -14.231 and -9.172
same,"Supplemental Figure 3a source data, relative MeV N RNA in PBMCs, individual animals","therapeutic (d3), time (d) 14",-9.809 and -12.4589 and -12.5095 and -12.5754 and -8.538 and -13.3167
same,"Supplemental Figure 3a source data, relative MeV N RNA in PBMCs, individual animals","therapeutic (d3), time (d) 17",-10.29 and -10.5346 and -12.5229 and -11.5387 and -13.4468
same,"Supplemental Figure 3a source data, relative MeV N RNA in PBMCs, individual animals","therapeutic (d3), time (d) 21",-15.6913 and -17.4162 and -8.965 and -9.87 and -13.3809
same,"Supp. Figure 3a, relative MeV N RNA in PBMCs, group mean (Mean 2)","therapeutic (d7), Day 0",-11.48
same,"Supp. Figure 3a, relative MeV N RNA in PBMCs, group mean (Mean 2)","therapeutic (d7), Day 3",-11.42
same,"Supp. Figure 3a, relative MeV N RNA in PBMCs, group mean (Mean 2)","therapeutic (d7), Day 7",-3.189
same,"Supp. Figure 3a, relative MeV N RNA in PBMCs, group mean (Mean 2)","therapeutic (d7), Day 10",-4.318
same,"Supp. Figure 3a, relative MeV N RNA in PBMCs, group mean (Mean 2)","therapeutic (d7), Day 14",-7.135
same,"Supp. Figure 3a, relative MeV N RNA in PBMCs, group mean (Mean 2)","therapeutic (d7), Day 17",-8.639
same,"Supp. Figure 3a, relative MeV N RNA in PBMCs, group mean (Mean 2)","therapeutic (d7), Day 21",-9.558
same,"Supplemental Figure 3a source data, relative MeV N RNA in PBMCs, individual animals","therapeutic (d7), time (d) 0",-14.3685 and -13.0066 and -11.8077 and -7.512 and -11.9115 and -10.2528
same,"Supplemental Figure 3a source data, relative MeV N RNA in PBMCs, individual animals","therapeutic (d7), time (d) 3",-13.8644 and -13.9177 and -9.909 and -10.1407 and -11.3735 and -9.308
same,"Supplemental Figure 3a source data, relative MeV N RNA in PBMCs, individual animals","therapeutic (d7), time (d) 7",-0.7497 and -4.549 and -6.525 and -1.948 and -0.04871 and -5.313
same,"Supplemental Figure 3a source data, relative MeV N RNA in PBMCs, individual animals","therapeutic (d7), time (d) 10",-4.45
same,"Supp. Figure 3a, relative MeV N RNA in PBMCs, Mean Diff.","untreated vs. prophylactic, Day 0",-1.268
same,"Supp. Figure 3a, relative MeV N RNA in PBMCs, Mean Diff.","untreated vs. prophylactic, Day 3",0.4295
same,"Supp. Figure 3a, relative MeV N RNA in PBMCs, Mean Diff.","untreated vs. prophylactic, Day 7",11.48
same,"Supp. Figure 3a, relative MeV N RNA in PBMCs, Mean Diff.","untreated vs. prophylactic, Day 10",11.3
same,"Supp. Figure 3a, relative MeV N RNA in PBMCs, Mean Diff.","untreated vs. prophylactic, Day 14",6.945
same,"Supp. Figure 3a, relative MeV N RNA in PBMCs, Mean Diff.","untreated vs. prophylactic, Day 17",2.967
same,"Supp. Figure 3a, relative MeV N RNA in PBMCs, Mean Diff.","untreated vs. prophylactic, Day 21",0.4094
same,"Supp. Figure 3a, relative MeV N RNA in PBMCs, Mean Diff.","untreated vs. therapeutic (d3), Day 0",-0.325
same,"Supp. Figure 3a, relative MeV N RNA in PBMCs, Mean Diff.","untreated vs. therapeutic (d3), Day 3",0.4421
same,"Supp. Figure 3a, relative MeV N RNA in PBMCs, Mean Diff.","untreated vs. therapeutic (d3), Day 7",9.205
same,"Supp. Figure 3a, relative MeV N RNA in PBMCs, Mean Diff.","untreated vs. therapeutic (d3), Day 10",8.257
same,"Supp. Figure 3a, relative MeV N RNA in PBMCs, Mean Diff.","untreated vs. therapeutic (d3), Day 14",5.316
same,"Supp. Figure 3a, relative MeV N RNA in PBMCs, Mean Diff.","untreated vs. therapeutic (d3), Day 17",3.169
same,"Supp. Figure 3a, relative MeV N RNA in PBMCs, Mean Diff.","untreated vs. therapeutic (d3), Day 21",3.351
same,"Supp. Figure 3a, relative MeV N RNA in PBMCs, Mean Diff.","untreated vs. therapeutic (d7), Day 0",-2.049
same,"Supp. Figure 3a, relative MeV N RNA in PBMCs, Mean Diff.","untreated vs. therapeutic (d7), Day 3",-0.2124
same,"Supp. Figure 3a, relative MeV N RNA in PBMCs, Mean Diff.","untreated vs. therapeutic (d7), Day 7",3.189
same,"Supp. Figure 3a, relative MeV N RNA in PBMCs, Mean Diff.","untreated vs. therapeutic (d7), Day 10",3.285
same,"Supp. Figure 3a, relative MeV N RNA in PBMCs, Mean Diff.","untreated vs. therapeutic (d7), Day 14",0.916
same,"Supp. Figure 3a, relative MeV N RNA in PBMCs, Mean Diff.","untreated vs. therapeutic (d7), Day 17",0.1414
same,"Supp. Figure 3a, relative MeV N RNA in PBMCs, Mean Diff.","untreated vs. therapeutic (d7), Day 21",-0.1552
